Measured values taken from the supplement of paper PMC10307832.

Assays:
Test in all cases: relative viability (nuclei count vs DMSO), 5 days (fraction); higher = more cells survive
[1] = tested on: HCC-44
Method in brief: (§1)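 Medians of duplicate plates are given as relative viability. That measure is the nuclei count in treated wells divided by the count in vehicle wells. Counts were taken on 4× images of lung cancer cell lines in 1536-well plates, 5 days after pin-tool dosing the day after seeding with one drug alone or a fixed anchor-drug dose plus five library-drug doses (not always all listed) in √10 steps.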

[2] = tested on: NCI-H2405
Method in brief: as §1

[3] = tested on: NCI-H460
Method in brief: as §1

[4] = tested on: A-427
Method in brief: as §1

[5] = tested on: NCI-H1755
Method in brief: as §1

[6] = tested on: ChaGo-K-1
Method in brief: as §1

[7] = tested on: EPLC-272H
Method in brief: as §1

[8] = tested on: NCI-H522
Method in brief: as §1

[9] = tested on: NCI-H647
Method in brief: as §1

[10] = tested on: NCI-H358
Method in brief: as §1

[11] = tested on: RERF-LC-KJ
Method in brief: as §1

[12] = tested on: COR-L 105
Method in brief: as §1

[13] = tested on: LK-2
Method in brief: as §1

[14] = tested on: EMC-BAC-2
Method in brief: as §1

[15] = tested on: NCI-H1792
Method in brief: as §1

[16] = tested on: LU99A
Method in brief: as §1

[17] = tested on: NCI-H1650
Method in brief: as §1

[18] = tested on: HARA
Method in brief: as §1

[19] = tested on: NCI-H1734
Method in brief: as §1

[20] = tested on: NCI-H1993
Method in brief: as §1

[21] = tested on: NCI-H596
Method in brief: as §1

[22] = tested on: EKVX
Method in brief: as §1

[23] = tested on: SW 900
Method in brief: as §1

SMILES: Cc1csc(=NC2CCCCC2)n1/N=C/c1ccc(O)c(O)c1O [MIM1] + CCNC(=O)c1noc(-c2cc(C(C)C)c(O)cc2O)c1-c1ccc(CN2CCOCC2)cc1 [Luminespib] (partner 0.01 µM)
- relative viability ([1]; first compound 0.2 µM): 0.952
- relative viability ([1]; first compound 0.6325 µM): 1.04
- relative viability ([1]; first compound 2 µM): 0.433
- relative viability ([1]; first compound 6.325 µM): 0.735
- relative viability ([1]; first compound 20 µM): 0.228
- relative viability ([2]; first compound 0.2 µM): 0.68
- relative viability ([2]; first compound 0.6325 µM): 0.92
- relative viability ([2]; first compound 2 µM): 0.654
- relative viability ([2]; first compound 6.325 µM): 0.543
- relative viability ([2]; first compound 20 µM): 0.403
- relative viability ([3]; first compound 0.2 µM): 0.0272
- relative viability ([3]; first compound 0.6325 µM): 0.0322
- relative viability ([3]; first compound 2 µM): 0.0432
- relative viability ([3]; first compound 6.325 µM): 0.0284
- relative viability ([3]; first compound 20 µM): 0.0278
- relative viability ([4]; first compound 0.2 µM): 0.832
- relative viability ([4]; first compound 0.6325 µM): 1.06
- relative viability ([4]; first compound 2 µM): 0.955
- relative viability ([4]; first compound 6.325 µM): 0.747
- relative viability ([4]; first compound 20 µM): 0.267
- relative viability ([5]; first compound 0.2 µM): 0.455
- relative viability ([5]; first compound 0.6325 µM): 0.51
- relative viability ([5]; first compound 2 µM): 0.703
- relative viability ([5]; first compound 6.325 µM): 0.459
- relative viability ([5]; first compound 20 µM): 0.414
- relative viability ([6]; first compound 0.2 µM): 0.559
- relative viability ([6]; first compound 0.6325 µM): 0.735
- relative viability ([6]; first compound 2 µM): 0.473
- relative viability ([6]; first compound 6.325 µM): 0.323
- relative viability ([6]; first compound 20 µM): 0.158
- relative viability ([7]; first compound 0.2 µM): 0.491
- relative viability ([7]; first compound 0.6325 µM): 0.266
- relative viability ([7]; first compound 2 µM): 0.205
- relative viability ([7]; first compound 6.325 µM): 0.143
- relative viability ([7]; first compound 20 µM): 0.122
- relative viability ([8]; first compound 0.2 µM): 1.23
- relative viability ([8]; first compound 0.6325 µM): 1.05
- relative viability ([8]; first compound 2 µM): 1.03
- relative viability ([8]; first compound 6.325 µM): 1.19
- relative viability ([8]; first compound 20 µM): 0.494
- relative viability ([9]; first compound 0.2 µM): 0.147
- relative viability ([9]; first compound 0.6325 µM): 0.271
- relative viability ([9]; first compound 2 µM): 0.18
- relative viability ([9]; first compound 6.325 µM): 0.198
- relative viability ([9]; first compound 20 µM): 0.0924
- relative viability ([10]; first compound 0.2 µM): 0.472
- relative viability ([10]; first compound 0.6325 µM): 0.292
- relative viability ([10]; first compound 2 µM): 0.303
- relative viability ([10]; first compound 6.325 µM): 0.204
- relative viability ([10]; first compound 20 µM): 0.211
- relative viability ([11]; first compound 0.2 µM): 1.21
- relative viability ([11]; first compound 0.6325 µM): 1.26
- relative viability ([11]; first compound 2 µM): 0.73
- relative viability ([11]; first compound 6.325 µM): 0.416
- relative viability ([11]; first compound 20 µM): 0.284
- relative viability ([12]; first compound 0.2 µM): 0.721
- relative viability ([12]; first compound 0.6325 µM): 0.918
- relative viability ([12]; first compound 2 µM): 0.813
- relative viability ([12]; first compound 6.325 µM): 0.642
- relative viability ([12]; first compound 20 µM): 0.801
- relative viability ([13]; first compound 0.2 µM): 0.16
- relative viability ([13]; first compound 2 µM): 0.169
- relative viability ([13]; first compound 6.325 µM): 0.195
- relative viability ([13]; first compound 20 µM): 0.171
- relative viability ([14]; first compound 0.2 µM): 1.12
- relative viability ([14]; first compound 0.6325 µM): 1.14
- relative viability ([14]; first compound 2 µM): 1.13
- relative viability ([14]; first compound 6.325 µM): 1.03
- relative viability ([14]; first compound 20 µM): 0.423
- relative viability ([15]; first compound 0.2 µM): 0.449
- relative viability ([15]; first compound 0.6325 µM): 0.43
- relative viability ([15]; first compound 2 µM): 0.5
- relative viability ([15]; first compound 6.325 µM): 0.398
- relative viability ([15]; first compound 20 µM): 0.396
- relative viability ([16]; first compound 0.2 µM): 0.227
- relative viability ([16]; first compound 0.6325 µM): 0.317
- relative viability ([16]; first compound 2 µM): 0.26
- relative viability ([16]; first compound 6.325 µM): 0.308
- relative viability ([16]; first compound 20 µM): 0.219
- relative viability ([17]; first compound 0.2 µM): 0.223
- relative viability ([17]; first compound 0.6325 µM): 0.189
- relative viability ([17]; first compound 2 µM): 0.221
- relative viability ([17]; first compound 6.325 µM): 0.19
- relative viability ([17]; first compound 20 µM): 0.22
- relative viability ([18]; first compound 0.2 µM): 0.866
- relative viability ([18]; first compound 2 µM): 0.776
- relative viability ([18]; first compound 6.325 µM): 0.251
- relative viability ([18]; first compound 20 µM): 0.0856
- relative viability ([19]; first compound 0.2 µM): 0.0909
- relative viability ([19]; first compound 0.6325 µM): 0.233
- relative viability ([19]; first compound 2 µM): 0.198
- relative viability ([19]; first compound 6.325 µM): 0.168
- relative viability ([19]; first compound 20 µM): 0.157
- relative viability ([20]; first compound 0.2 µM): 0.441
- relative viability ([20]; first compound 0.6325 µM): 0.663
- relative viability ([20]; first compound 2 µM): 0.652
- relative viability ([20]; first compound 6.325 µM): 0.633
- relative viability ([20]; first compound 20 µM): 0.499
- relative viability ([21]; first compound 0.2 µM): 1.03
- relative viability ([21]; first compound 0.6325 µM): 0.879
- relative viability ([21]; first compound 2 µM): 0.939
- relative viability ([21]; first compound 6.325 µM): 0.918
- relative viability ([21]; first compound 20 µM): 0.486
- relative viability ([22]; first compound 0.2 µM): 0.863
- relative viability ([22]; first compound 0.6325 µM): 0.766
- relative viability ([22]; first compound 2 µM): 0.832
- relative viability ([22]; first compound 6.325 µM): 0.701
- relative viability ([22]; first compound 20 µM): 0.617
- relative viability ([23]; first compound 0.2 µM): 0.174
- relative viability ([23]; first compound 0.6325 µM): 0.199
- relative viability ([23]; first compound 2 µM): 0.19
- relative viability ([23]; first compound 6.325 µM): 0.185
- relative viability ([23]; first compound 20 µM): 0.2
